# Measured values as given in US11331299B2, “Medicinal use of serrulatane diterpenes” (The University of Sydney, priority 2016, dated 2022).
# Where “and” joins values, the source holds several entries; their conditions need not be identical. Equal entries are not always repeated. Where two headings read alike, the source gives them in different places.
# Assays:
# [1] = tested on: H3K27 me3; experiment: Cell-based detection methyl modifications; details: read-out: % Inhibition of Control Values
# [2] = molecular target: ASH1L (Homo sapiens, UniProt Q9NR48); experiment: Epigenetic enzyme assay, Methyltransferases (MTs); format: biochemical; details: for inhibition at 10 µM: read-out: % Inhibition of Control Values
# [3] = molecular target: DOT1L (h) (Homo sapiens, UniProt Q8TEK3); experiment: Epigenetic enzyme assay, Methyltransferases (MTs); format: biochemical; details: read-out: % Inhibition of Control Values
# [4] = molecular target: T1, PRMT4 (h) (Homo sapiens, UniProt Q86X55); experiment: Epigenetic enzyme assay, Methyltransferases (MTs); format: biochemical; details: for inhibition at 10 µM: read-out: % Inhibition of Control Values; for IC50: Table 11, inhibition/concentration-response curve
# T1 sequence (Q86X55 1-608): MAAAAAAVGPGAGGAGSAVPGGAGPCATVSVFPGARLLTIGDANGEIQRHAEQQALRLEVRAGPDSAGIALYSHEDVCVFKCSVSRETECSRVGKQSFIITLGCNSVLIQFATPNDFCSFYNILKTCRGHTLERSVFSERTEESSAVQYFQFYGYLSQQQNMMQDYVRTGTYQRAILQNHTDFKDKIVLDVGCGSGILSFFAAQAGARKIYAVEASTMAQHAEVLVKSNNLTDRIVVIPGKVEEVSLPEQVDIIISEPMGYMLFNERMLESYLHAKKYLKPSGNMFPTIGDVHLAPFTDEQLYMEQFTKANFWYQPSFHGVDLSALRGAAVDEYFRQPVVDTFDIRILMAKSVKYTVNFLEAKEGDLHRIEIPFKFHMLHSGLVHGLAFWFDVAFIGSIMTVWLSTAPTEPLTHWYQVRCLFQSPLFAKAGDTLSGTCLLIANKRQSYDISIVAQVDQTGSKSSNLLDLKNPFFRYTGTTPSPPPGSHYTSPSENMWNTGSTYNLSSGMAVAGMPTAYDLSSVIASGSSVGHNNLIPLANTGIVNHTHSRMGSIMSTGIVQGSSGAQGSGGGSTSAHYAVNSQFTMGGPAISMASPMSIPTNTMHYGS
# [5] = molecular target: T2, Histamine H3 (Homo sapiens, UniProt Q9Y5N1); experiment: Histamine H3 radio ligand binding
# T2 construct: expressed in transfected cells; host or cells: Chem-1 cells
# Method: The in vitro pharmacological studies were conducted by Eurofins PanLab (Taiwan) using the parameters shown in Table 13 with respect to appropriate literature references.
# [6] = molecular target: T3, 5-Lipoxygenase (Homo sapiens, UniProt P09917); experiment: 5-Lipoxygenase; format: biochemical; details: for remaining activity at 10 µM: assay year 2015, read-out: % Control Response
# T3 construct: host or cells: Insect Sf9 cells
# T3 sequence (P09917 1-674): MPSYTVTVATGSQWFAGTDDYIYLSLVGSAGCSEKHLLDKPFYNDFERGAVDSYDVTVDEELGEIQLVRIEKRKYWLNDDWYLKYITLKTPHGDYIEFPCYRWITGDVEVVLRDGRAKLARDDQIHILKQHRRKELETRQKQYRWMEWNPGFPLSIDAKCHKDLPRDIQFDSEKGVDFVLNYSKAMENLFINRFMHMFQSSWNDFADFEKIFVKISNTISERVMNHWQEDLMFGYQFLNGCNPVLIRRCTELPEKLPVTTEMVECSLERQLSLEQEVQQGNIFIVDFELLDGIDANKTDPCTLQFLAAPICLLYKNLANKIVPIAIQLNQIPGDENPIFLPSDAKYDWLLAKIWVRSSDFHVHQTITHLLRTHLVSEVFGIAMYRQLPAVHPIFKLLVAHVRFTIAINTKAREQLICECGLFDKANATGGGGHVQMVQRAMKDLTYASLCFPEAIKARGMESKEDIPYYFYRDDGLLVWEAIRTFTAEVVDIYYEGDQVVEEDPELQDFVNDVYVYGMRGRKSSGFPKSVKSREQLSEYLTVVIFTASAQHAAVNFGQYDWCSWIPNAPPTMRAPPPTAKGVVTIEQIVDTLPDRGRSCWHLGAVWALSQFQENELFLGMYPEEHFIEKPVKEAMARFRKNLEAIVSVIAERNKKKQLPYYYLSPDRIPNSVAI
# [7] = tested on: HL-60 leukemia cells; experiment: In vitro cell viability assay (intracellular ATP, 72 hour); format: cell-based; details: HL-60 (TB) (Leukemia); 10 μM
# [8] = assay year 2014, read-out: % Control Response
# [9] = assay year 2015, read-out: % Control Response
# Sequence of DOT1L (h) (Q8TEK3 whole entry): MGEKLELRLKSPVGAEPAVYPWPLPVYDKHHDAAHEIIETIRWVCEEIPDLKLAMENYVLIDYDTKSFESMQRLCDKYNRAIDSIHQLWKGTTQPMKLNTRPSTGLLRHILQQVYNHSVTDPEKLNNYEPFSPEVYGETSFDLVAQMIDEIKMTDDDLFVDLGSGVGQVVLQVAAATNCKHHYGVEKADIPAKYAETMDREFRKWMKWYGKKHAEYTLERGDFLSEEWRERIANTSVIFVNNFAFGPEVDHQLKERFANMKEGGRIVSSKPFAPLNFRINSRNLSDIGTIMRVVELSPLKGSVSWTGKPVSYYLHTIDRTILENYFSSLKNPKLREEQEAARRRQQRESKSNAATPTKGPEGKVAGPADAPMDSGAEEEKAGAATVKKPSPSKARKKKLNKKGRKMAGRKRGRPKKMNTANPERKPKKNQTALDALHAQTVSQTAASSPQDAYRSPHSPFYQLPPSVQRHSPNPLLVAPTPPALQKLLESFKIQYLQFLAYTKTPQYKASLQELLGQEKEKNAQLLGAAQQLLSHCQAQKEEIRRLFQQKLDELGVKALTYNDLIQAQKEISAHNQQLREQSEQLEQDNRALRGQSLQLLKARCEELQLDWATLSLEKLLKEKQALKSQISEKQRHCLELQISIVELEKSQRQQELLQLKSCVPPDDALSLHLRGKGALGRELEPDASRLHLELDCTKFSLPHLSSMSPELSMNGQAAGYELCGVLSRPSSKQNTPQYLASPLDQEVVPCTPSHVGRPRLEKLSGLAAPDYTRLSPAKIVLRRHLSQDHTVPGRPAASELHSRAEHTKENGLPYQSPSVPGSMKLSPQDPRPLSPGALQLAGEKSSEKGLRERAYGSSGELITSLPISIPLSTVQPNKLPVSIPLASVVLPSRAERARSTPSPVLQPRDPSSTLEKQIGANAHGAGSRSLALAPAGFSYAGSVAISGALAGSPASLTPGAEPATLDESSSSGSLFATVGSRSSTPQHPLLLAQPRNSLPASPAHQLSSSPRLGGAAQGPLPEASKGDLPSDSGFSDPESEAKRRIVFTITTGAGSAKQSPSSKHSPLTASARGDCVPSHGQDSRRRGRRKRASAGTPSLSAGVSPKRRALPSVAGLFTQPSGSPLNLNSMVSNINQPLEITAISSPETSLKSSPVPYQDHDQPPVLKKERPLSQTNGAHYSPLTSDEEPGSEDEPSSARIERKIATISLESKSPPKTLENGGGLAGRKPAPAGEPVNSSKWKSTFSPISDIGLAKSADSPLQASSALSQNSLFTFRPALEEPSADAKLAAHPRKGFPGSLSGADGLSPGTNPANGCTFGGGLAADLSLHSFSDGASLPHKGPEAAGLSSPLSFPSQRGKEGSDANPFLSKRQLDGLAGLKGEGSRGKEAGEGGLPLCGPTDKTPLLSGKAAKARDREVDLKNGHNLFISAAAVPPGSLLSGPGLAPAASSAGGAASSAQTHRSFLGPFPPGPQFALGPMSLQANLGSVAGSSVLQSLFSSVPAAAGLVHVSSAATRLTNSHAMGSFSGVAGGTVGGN
# T2 sequence (Q9Y5N1 whole entry): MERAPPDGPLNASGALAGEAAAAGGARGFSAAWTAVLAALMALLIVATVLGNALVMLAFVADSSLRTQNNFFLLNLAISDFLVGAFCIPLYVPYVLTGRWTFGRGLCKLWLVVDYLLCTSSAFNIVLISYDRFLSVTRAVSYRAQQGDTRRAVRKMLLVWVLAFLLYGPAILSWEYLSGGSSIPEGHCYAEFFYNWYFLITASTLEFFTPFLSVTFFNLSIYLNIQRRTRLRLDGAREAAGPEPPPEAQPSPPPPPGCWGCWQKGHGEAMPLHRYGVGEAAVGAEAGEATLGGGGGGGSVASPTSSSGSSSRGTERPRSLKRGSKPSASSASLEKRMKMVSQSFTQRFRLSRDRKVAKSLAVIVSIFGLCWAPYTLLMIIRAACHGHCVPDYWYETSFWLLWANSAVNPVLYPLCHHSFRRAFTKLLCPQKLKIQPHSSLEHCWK
Structure (SMILES),inhibition at 10 µM [1] [%],inhibition at 10 µM [2] [%],inhibition at 10 µM [3] [%],inhibition at 10 µM [4] [%],IC50 [4] [µM],"remaining activity at 10 µM [5, 8] [%]","remaining activity at 10 µM [5, 9] [%]",remaining activity at 10 µM [6] [%],IC50 ([6]; concentration-response 10 to 0.01 μM),% Cell growth [7] [%],IC50 ([2]; read-out: Reference IC50) [µM]
"CC(C)=CCC[C@H](CO)[C@@H]1CC[C@@H](C)c2c1cc(C)c(O)c2O [Compound 1, 7,8,18-trihydroxyserrulat-14-ene]",-8,3,-5,90,4.7,-10,12,79,2.3 µM and 2.31 µM,−62,
"CC(C)=CCC[C@@H]1COc2c(C)cc(O)c3c2[C@H]1CC[C@H]3C [Compound 3, 5,18-epoxy-8-hydroxyserrulat-14-ene]",0,-54,13,77,,,1,67,,138,
Nc1ncnc2c1ncn2[C@@H]1O[C@H](CSCC[C@H](N)C(=O)O)[C@@H](O)[C@H]1O [SAH],,,,,,,,,,,9.1
"CC(C)=CCC[C@H](C)[C@@H]1CC[C@@H](C)c2c1cc(C)c(O)c2O [Compound 4, 7,8-dihydroxyserrulat-14-ene]",,,,,4.7,,,,,−83,
"CC(C)=CCC[C@@H]1C(O)Oc2c(C)cc(O)c3c2[C@H]1CC[C@H]3C (some centres unmarked) [Compound 2, 5,18-epoxyserrulat-14-en-8,18-diol]",-7,20,18,84,5.4,-5,24,53,,−35,
